From patent publication US8871933B2, “Purified pyrroloquinolinyl-pyrrolidine-2,5-dione compositions and methods for preparing and using same” (ArQule, Inc., priority 2009, dated 2014)

Key:
[1] = tested on: A549 human lung cancer cells; experiment: Annexin V / propidium iodide apoptosis staining; assay type: cell-based; parameters: dose or concentration left out as unconfirmed
Method: A549 human lung cancer cells in a 96-well plate (Costar 3603, 5,000/well) were treated with either A) DMSO as a control; B) […] (−)-trans-3-(5,6-dihydro-4H-pyrrolo[3,2,1-ij]quinolin-1-yl)-4-(1H-indol-3-yl)pyrrolidine-2,5-dione for 38 hours before addition of 1:200 fluorescent Annexin V (green) and 1:500 Propidium iodide (magenta, final concentration of […]). The labeling procedure was allowed to process at 37° C. for 20 minutes followed by image acquisition and analysis using an IC100 Image Cytometer (Beckman Coulter, Inc) with 10× amplification. To determine whether (−)-trans-3-(5,6-dihydro-4H-pyrrolo[3,2,1-ij]quinolin-1-yl)-4-(1H-indol-3-yl)pyrrolidine-2,5-dione works primarily through a cytostatic or apoptotic mechanism, cancer cells exposed to (−)-trans-3-(5,6-dihydro-4H-pyrrolo[3,2,1-ij]quinolin-1-yl)-4-(1H-indol-3-yl)pyrrolidine-2,5-dione were stained with fluorescently labeled Annexin V (green fluorescence) and propidium iodide (bright magenta fluorescence). Annexin V is a well-validated reagent that specifically binds with high affinity to externalized membrane phosphatidylserine, an early marker of the onset of apoptosis, while propidium iodide is a marker for dead cells. […] (See, FIG. 6)

[2] = tested on: MDA-MB-231 breast cancer cells; experiment: Cancer cell invasion assay (inserts); assay type: cell-based; conditions: Homo sapiens, 24 hours pretreatment, 24 hours invasion, estimated, read-out: IC50, inhibition of invasive phenotype
Method: MDA-MB-231 cells were pretreated with indicated concentrations of (−)-trans-3-(5,6-dihydro-4H-pyrrolo[3,2,1-ij]quinolin-1-yl)-4-(1H-indol-3-yl)pyrrolidine-2,5-dione for 24 hours. 300 μl of each cell suspension (at a concentration 0.5×10^6 cells/mL in serum free medium) was placed in individual inserts and incubated for 24 hours at 37° C. The bottom wells housing the inserts contained […] of 10% FBS containing medium. […] Each insert was then transferred to a clean well containing cell stain solution and incubated for 10 minutes at room temperature. The bottom of the insert was destained by incubating in extraction solution and OD was measured at 560 nm. (−)-trans-3-(5,6-dihydro-4H-pyrrolo[3,2,1-ij]quinolin-1-yl)-4-(1H-indol-3-yl)pyrrolidine-2,5-dione inhibited the migration across interstices in confluent cultures of MDA-MB-231 cancer cells. The data represent the mean of two independent experiments. (See FIG. 7)

[3] = tested on: HT-29 human colon cancer cells; experiment: Human colon cancer xenograft; assay type: in vivo, female athymic nude mice; conditions: for optimal tumor growth inhibition: 20 treatments
Method: In a human colon cancer xenograft model HT-29 human colon cancer cells were inoculated subcutaneously into female athymic nude mice (5×10^6 cells/mouse) and allowed to form palpable tumors. Once the tumors reached approximately 60 mm^3, the animals were treated orally with either (−)-trans-3-(5,6-dihydro-4H-pyrrolo[3,2,1-ij]quinolin-1-yl)-4-(1H-indol-3-yl)pyrrolidine-2,5-dione at 200 mg/kg or 300 mg/kg, or vehicle control daily (5 consecutive days, followed by a 2 day dosing holiday). (−)-trans-3-(5,6-dihydro-4H-pyrrolo[3,2,1-ij]quinolin-1-yl)-4-(1H-indol-3-yl)pyrrolidine-2,5-dione was formulated in PEG 400:20% Vitamin E TPGS (60:40). The animals received a total of 20 treatments of either (−)-trans-3-(5,6-dihydro-4H-pyrrolo[3,2,1-ij]quinolin-1-yl)-4-(1H-indol-3-yl)pyrrolidine-2,5-dione or vehicle control. Tumors were measured throughout treatment and the post-treatment observation period. Each point represents the mean±SEM often tumors. (See, FIG. 9, Panel A)

c-Met [4] = target: T1, c-Met (Homo sapiens, UniProt P08581); experiment: Kinase inhibition, c-Met; assay type: biochemical; conditions: read-out: inhibitory constant (Ki)
Method: (§1) (−)-trans-3-(5,6-dihydro-4H-pyrrolo[3,2,1-ij]quinolin-1-yl)-4-(1H-indol-3-yl)pyrrolidine-2,5-dione was assessed for its activity to inhibit a large panel (n=230) of human kinases.

[5] = tested on: panel (n=230) of human kinases; experiment: Large panel (n=230) of human kinases; assay type: biochemical; conditions: n=230 human kinases
Method: as §1

c-Met [6] = target: T1, c-Met; experiment: c-Met phosphorylation in MDA-MB-231 cells, basal and HGF-induced (Western blot); assay type: cell-based; parameters: Whole cell extracts were prepared in lysis buffer; endogenous in cells; host or cells: MDA-MB-231; conditions: serum-deprived 16 hours, 100 ng/ml HGF/SF for 10 minutes
Method: MDA-MB-231 cells were serum-deprived overnight (16 hours) in the absence or in the presence of the indicated concentrations of the separate enantiomers (+)-trans-3-(5,6-dihydro-4H-pyrrolo[3,2,1-ij]quinolin-1-yl)-4-(1H-indol-3-yl)pyrrolidine-2,5-dione and (−)-trans-3-(5,6-dihydro-4H-pyrrolo[3,2,1-ij]quinolin-1-yl)-4-(1H-indol-3-yl)pyrrolidine-2,5-dione. Cells were treated with 100 ng/ml recombinant human Hepatocyte Growth Factor/Scatter Factor (HGF/SF) (R&D Systems #294-HG) for 10 minutes. Whole cell extracts were prepared in lysis buffer (20 mM Tris-HCl pH 7.5, 150 mM NaCl, 1 mM Na2EDTA, 1 mM EGTA, 1% Triton X-100, 2.5 mM sodium pyrophosphate, 1 mM beta-glycerophosphate, 1 mM Na3VO4, 1 μg/ml leupeptin, 1 mM phenylmethylsulfonyl fluoride) and sonicated. Protein concentration was measured by Bradford assay using the BioRad reagent (BioRad, Hercules, Calif.), according to the manufacturer's directions. Samples ([…] of protein) were resolved by 8% SDS-PAGE under reducing conditions and transferred onto a PVDF membrane (BioRad). […] Proteins were detected by incubation overnight at 4° C. in TBS-T with 5% milk and either a polyclonal antibody against phosphorylated c-Met (#3121) or a monoclonal antibody against β-actin (A-5441) (Sigma), which was used as a control for total protein loading. […]

c-Met [7] = target: T1, c-Met; experiment: c-Met in tumor biopsies from treated patients; assay type: in vivo; parameters: the c-Met protein in tumor biopsies from patients; from tissue; host or cells: tumour biopsies from treated patients; conditions: patients treated with the drug

T1 sequence (P08581 25-1390): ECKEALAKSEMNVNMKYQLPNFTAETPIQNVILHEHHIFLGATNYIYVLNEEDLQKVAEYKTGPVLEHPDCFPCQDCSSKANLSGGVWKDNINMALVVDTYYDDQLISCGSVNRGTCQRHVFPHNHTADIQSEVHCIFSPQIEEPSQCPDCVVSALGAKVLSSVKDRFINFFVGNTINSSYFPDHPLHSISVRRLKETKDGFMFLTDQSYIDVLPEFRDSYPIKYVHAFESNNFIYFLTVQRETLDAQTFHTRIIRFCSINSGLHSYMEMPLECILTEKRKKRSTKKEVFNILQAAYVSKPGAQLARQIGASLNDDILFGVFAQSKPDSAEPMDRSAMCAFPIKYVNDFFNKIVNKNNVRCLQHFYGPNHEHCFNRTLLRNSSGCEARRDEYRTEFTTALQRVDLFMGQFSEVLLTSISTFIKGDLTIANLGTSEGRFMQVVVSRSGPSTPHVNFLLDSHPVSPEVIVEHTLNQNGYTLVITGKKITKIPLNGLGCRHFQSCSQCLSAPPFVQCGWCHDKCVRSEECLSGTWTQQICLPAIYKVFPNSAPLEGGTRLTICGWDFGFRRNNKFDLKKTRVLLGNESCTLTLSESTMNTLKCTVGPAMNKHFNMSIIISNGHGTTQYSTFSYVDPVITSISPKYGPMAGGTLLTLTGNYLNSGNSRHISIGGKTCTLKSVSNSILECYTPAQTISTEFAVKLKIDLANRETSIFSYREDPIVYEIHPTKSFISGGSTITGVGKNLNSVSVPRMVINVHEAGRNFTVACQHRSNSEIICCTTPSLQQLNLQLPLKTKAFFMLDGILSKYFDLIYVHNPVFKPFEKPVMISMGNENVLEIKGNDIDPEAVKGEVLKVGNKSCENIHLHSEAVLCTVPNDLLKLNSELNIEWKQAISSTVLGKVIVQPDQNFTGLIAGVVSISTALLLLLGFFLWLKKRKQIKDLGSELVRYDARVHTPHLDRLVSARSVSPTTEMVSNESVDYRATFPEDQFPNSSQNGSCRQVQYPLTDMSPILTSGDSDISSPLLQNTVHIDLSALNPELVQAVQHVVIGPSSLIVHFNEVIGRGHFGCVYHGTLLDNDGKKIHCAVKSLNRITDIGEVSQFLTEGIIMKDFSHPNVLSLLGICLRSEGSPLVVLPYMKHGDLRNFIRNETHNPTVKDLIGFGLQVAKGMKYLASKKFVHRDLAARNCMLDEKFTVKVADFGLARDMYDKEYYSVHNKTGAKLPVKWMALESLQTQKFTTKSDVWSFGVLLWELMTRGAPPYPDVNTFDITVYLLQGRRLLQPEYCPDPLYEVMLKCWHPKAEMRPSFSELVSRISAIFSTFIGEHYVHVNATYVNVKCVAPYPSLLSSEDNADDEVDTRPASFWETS

IC50 [2]: ~500 nM
Ki (c-Met [4]): ~360 nM
concentration that inhibits both basal and HGF-induced autophosphorylation of c-Met (c-Met [6]): at least 30 nM
Structure (SMILES): O=C1NC(=O)[C@@H](c2cn3c4c(cccc24)CCC3)[C@@H]1c1c[nH]c2ccccc12 (single isomer, unassigned) [(−)-trans-3-(5,6-dihydro-4H-pyrrolo[3,2,1-ij]quinolin-1-yl)-4-(1H-indol-3-yl)pyrrolidine-2,5-dione]
apoptosis (Annexin V staining) [1]: induced cells to undergo apoptosis
cells co-stained with both Annexin V and propidium iodide (dead cells) [1]: 10-20%
optimal tumor growth inhibition ([3]; 200 mg/kg orally, p=0.006): 39%
optimal tumor growth inhibition ([3]; 300 mg/kg orally, p=0.00001): 55%
change in body weight ([3]; oral administration at 200 mg/kg or 300 mg/kg): no significant change in body weight
kinase selectivity in panel [5]: inhibited only c-Met to a significant degree
inhibition of c-Met protein in tumor biopsies (c-Met [7]): ability to inhibit the c-Met protein in tumor biopsies
